The source of these data is ChEMBL document CHEMBL1201862, “PubChem BioAssay data set” (2004).

The source made the active and inactive calls. Rule as the data show it, for most assays here: actives have a measured EC50 and inactives only a lower limit.

Assay [1] can be described thus: Luminescence Cell-Based Dose Response HTS to Identify Activators of Luciferase Translation or Activity in H4 […] Cells. [Related pubchem assays: 1829 (Project Summary), 1814 (Primary HTS)]. It is filed as functional.
The nature of assay [2]: Luminescence Cell-Based Dose Confirmation HTS to Identify Activators of 5'UTR Stem-Loop Driven Alpha-Synuclein mRNA Translation in H4 Neuroglioblastoma Cells. [Related pubchem assays: 1829 (Project Summary), 1814 (Primary HTS)]. The assay is classed as functional.
Assay [3] relates to H4. Briefly: Luminescence Cell-Based Dose Response HTS to Identify Activators of 5'UTR Stem-Loop Driven Prion Protein mRNA Translation in H4 Neuroglioblastoma Cells. [Related pubchem assays: 1829 (Project Summary), 1814 (Primary HTS)]. The assay is classed as functional. The note with it: Homo sapiens.
Assay [4] addresses T1, Corticotropin-releasing factor receptor 2/Corticotropin-releasing factor-binding protein (Homo sapiens, UniProt P24387+Q13324).
T1 sequence (Q13324 whole entry): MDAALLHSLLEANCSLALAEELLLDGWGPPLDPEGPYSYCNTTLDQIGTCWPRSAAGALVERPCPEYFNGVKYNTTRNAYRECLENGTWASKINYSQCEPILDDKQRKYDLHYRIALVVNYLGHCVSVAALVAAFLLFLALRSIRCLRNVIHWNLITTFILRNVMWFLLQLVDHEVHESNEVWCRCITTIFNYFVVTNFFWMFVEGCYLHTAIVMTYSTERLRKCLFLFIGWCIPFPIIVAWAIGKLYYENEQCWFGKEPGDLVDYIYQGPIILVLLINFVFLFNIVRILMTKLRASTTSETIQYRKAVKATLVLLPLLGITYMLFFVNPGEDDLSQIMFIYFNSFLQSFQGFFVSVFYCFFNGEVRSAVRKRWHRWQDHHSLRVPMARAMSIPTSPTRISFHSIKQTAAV
T1 sequence (P24387 whole entry): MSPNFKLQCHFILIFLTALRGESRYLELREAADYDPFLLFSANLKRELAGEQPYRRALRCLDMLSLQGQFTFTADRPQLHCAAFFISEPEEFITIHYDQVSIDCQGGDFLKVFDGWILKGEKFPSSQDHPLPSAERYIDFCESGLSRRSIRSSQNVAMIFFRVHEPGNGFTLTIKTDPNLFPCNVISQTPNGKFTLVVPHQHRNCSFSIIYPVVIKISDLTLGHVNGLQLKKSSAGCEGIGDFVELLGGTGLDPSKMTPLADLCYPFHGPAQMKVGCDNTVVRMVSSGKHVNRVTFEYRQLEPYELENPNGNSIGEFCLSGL
Nature of the assay: activators of CRF receptor 2 with binding protein – uHTS hits, confirmation (AID 602473). It is filed as functional. The note with it: read-out: EC50_Mean.

Assay [5] has as its target T1, Corticotropin-releasing factor receptor 2/Corticotropin-releasing factor-binding protein. Briefly: Dose Response confirmation of uHTS hits for small molecule antagonists of the CRF-binding protein and CRF-R2 receptor complex. It is filed as functional. The note with it: read-out: IC50_Mean.
The target of assay [6] is T2, Protein RecA (Mycobacterium tuberculosis, UniProt P9WHJ3).
T2 sequence (P9WHJ3 whole entry): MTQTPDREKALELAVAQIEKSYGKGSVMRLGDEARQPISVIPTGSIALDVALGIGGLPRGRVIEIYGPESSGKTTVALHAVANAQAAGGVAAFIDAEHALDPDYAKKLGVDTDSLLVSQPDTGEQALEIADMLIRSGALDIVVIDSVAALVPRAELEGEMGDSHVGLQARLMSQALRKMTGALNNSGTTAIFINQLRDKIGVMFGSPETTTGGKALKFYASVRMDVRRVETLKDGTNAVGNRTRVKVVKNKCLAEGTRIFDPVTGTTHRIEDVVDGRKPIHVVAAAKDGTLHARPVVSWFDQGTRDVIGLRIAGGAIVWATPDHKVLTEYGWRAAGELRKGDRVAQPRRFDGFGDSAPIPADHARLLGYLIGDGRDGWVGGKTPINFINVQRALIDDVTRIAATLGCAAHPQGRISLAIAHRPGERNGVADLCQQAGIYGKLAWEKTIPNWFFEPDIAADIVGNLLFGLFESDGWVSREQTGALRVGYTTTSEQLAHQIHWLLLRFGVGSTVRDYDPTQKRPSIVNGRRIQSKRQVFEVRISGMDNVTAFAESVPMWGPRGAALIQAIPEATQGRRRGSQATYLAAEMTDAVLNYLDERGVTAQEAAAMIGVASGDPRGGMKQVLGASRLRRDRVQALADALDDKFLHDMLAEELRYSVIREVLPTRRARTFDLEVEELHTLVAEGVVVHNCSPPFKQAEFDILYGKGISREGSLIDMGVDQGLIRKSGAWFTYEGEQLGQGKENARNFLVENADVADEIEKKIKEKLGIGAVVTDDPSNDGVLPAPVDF
Briefly: Fluorescence Cell-Free Homogeneous Dose Retest to Identify Inhibitors of RecA-Intein Splicing Activity. [Related pubchem assays (depositor defined):AID2097, AID2223, AID489010, AID492950]. The assay is classed as functional.

The target of assay [7] is T3, Replicative DNA helicase DnaB (Mycobacterium tuberculosis, UniProt P9WMR3).
T3 sequence (P9WMR3 whole entry): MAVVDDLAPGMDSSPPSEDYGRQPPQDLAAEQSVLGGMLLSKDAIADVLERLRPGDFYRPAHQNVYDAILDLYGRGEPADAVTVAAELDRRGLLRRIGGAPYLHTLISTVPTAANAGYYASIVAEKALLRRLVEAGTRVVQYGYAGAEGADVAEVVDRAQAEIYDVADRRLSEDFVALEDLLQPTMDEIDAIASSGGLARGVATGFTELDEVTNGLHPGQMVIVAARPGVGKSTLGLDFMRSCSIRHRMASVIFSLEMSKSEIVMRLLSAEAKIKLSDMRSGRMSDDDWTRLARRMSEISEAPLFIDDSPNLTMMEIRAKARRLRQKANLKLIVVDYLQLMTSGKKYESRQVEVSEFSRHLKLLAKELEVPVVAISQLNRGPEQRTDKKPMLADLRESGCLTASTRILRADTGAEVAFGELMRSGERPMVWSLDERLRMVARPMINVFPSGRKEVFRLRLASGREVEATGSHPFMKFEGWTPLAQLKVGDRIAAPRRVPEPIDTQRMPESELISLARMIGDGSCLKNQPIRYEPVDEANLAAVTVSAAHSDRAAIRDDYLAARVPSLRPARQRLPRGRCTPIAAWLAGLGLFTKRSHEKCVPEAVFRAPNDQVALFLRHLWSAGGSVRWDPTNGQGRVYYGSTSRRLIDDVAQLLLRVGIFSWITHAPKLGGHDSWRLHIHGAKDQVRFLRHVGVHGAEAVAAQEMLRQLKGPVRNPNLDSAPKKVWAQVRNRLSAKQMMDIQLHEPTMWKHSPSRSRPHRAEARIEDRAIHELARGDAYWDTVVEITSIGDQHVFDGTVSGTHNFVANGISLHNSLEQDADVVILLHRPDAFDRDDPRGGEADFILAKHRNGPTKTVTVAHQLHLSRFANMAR
Nature of the assay: DnaB intein splicing inhibitors, dose response, biochemical, cell-free fluorescence (AID 449749). The assay is classed as functional.

The target of assay [8] is T4, Rac GTPase-activating protein 1 (Homo sapiens, UniProt Q9H0H5).
T4 sequence (Q9H0H5 whole entry): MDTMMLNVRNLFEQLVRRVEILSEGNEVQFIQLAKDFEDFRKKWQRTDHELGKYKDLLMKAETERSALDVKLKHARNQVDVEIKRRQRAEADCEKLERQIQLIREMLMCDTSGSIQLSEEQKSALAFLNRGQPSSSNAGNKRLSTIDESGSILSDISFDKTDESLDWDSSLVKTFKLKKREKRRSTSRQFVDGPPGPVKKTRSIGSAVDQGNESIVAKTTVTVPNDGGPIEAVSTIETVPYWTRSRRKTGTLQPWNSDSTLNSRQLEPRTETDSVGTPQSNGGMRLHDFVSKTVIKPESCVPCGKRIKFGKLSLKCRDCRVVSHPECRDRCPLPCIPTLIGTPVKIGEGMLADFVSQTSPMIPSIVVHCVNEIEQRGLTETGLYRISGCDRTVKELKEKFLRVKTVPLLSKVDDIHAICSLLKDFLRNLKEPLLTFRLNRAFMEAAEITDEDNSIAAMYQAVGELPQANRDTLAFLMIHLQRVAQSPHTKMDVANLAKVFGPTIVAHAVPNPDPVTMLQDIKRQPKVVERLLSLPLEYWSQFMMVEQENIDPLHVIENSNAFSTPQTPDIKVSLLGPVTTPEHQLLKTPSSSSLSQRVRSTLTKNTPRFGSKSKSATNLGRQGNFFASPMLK
Nature of the assay: blockers of MgcRacGAP-driven Rac1 GTP hydrolysis – biochemical, ADP Hunter fluorescence, primary and confirmatory, confirmation (AID 624330). The assay is classed as functional.

The subject of assay [9] is H9c2. Briefly: cells. The assay is classed as functional, cell-based. The note with it: Rattus norvegicus, H9c2, Myocardium.

Regarding `Cn1c(C(=O)NC2CCCCC2)cc2c(=O)n3ccccc3nc21`, the EC50 is 8.85 µM (active) in assay [1], > 120 µM (not active) in assay [2] and 29.3 µM (active) in [3].

As to `O=C(Nc1ccc(N2CCCCCC2)cc1)c1ccccc1Cl`, in [4], the EC50 is > 53 µM (inactive). For the same compound, in [5], the IC50 was > 47.1 µM (inactive).

In the case of `Cn1c(SCc2ccccc2F)nnc1-c1cnccn1`, the EC50 is 35.2 µM (active) in assay [1], 0.166 µM (active) in [2] and 4.22 µM (active) in [3].

`Cc1nc2ccc(NC(=O)CCC3CCCC3)cc2s1`: the figures for the EC50 in assay [1], in [2] and in assay [3] were 28.8 µM (active), 10.7 µM (active) and 15.2 µM (active), respectively.

`COc1ccc(NC(=O)c2ccc(-c3csc(C)n3)cc2)cc1`: the EC50 in [1] is 1.24 µM (active); in assay [2], 3.97 µM (active); in assay [3], > 120 µM (not active).

As to `CCOc1ccc2c(c1)=C(NN1C(=O)c3ccccc3C1=O)C(=O)N=2`, in [4], the EC50 was > 53 µM (inactive). Moreover, the IC50 in [5] is > 47.1 µM (inactive).

For the compound `COc1nc(N/N=C/c2ccc(-c3ccccc3[N+](=O)[O-])o2)nc(N2CCOCC2)n1`, the EC50 in assay [6] is 14.4 µM (active); in assay [1], 22.5 µM (active); in assay [2] it was 12.4 µM (active); in [3], 24.7 µM (active). The AC50 in assay [7] is 16 µM (active).

In the case of `CC(=O)c1c(C)c(C)c2n1CCn1c(C)ccc1-2`, the IC50 in assay [8] was 29 µM (active).

Consider `O=[N+]([O-])c1ccc2c(c1)C(O)n1nc(-c3ccccc3)nc1S2` (stereo not drawn), for which the EC50 in assay [1], in assay [2] and in assay [3] was > 120 µM (not active) each time.

As to `CCn1c(C)nc2cc(C(=O)N/N=C/c3ccc(O)cc3)ccc21`, the IC50 in [8] was 66.7 µM (active).

For the compound `CCn1ncc(C(=O)Nc2cccc(Cl)c2)c1C`, the EC50 was 5.61 µM (active) in assay [1], 0.244 µM (active) in assay [2] and 109 µM (active) in [3].

For `COc1ccc(C2=NCN(c3ccc(C)cc3)C(S)=N2)cc1`, the EC50 in assay [1] is > 120 µM (not active); in [2], 6.32 µM (active); in [3], 7.4 µM (active).

With `N#C/C=C1\Sc2ccccc2C(=O)N1CC(=O)N1CCN(S(=O)(=O)c2ccccc2)CC1`, the figures for the EC50 in assay [1], in assay [2] and in [3] were 16 µM (active), 13.2 µM (active) and 46.7 µM (active), respectively.

`COC(=O)c1c(NC(=O)CCNCc2ccco2)sc2c1CCC2`: in assay [8], the IC50 is 138 µM (active).

As for `CCOc1ccc(/C=C(\C#N)C(=O)NC2CC2)c(OCC)c1`, the EC50 in assay [4] is > 53 µM (inactive). Further, in assay [5], the IC50 is > 47.1 µM (inactive).

As to `COc1ccc(N2C(=O)CC(c3ccc([N+](=O)[O-])cc3)C2=O)cc1` (stereo not drawn), in assay [4], the EC50 was > 53 µM (inactive). In addition, in [5], the IC50 is > 47.1 µM (inactive).

Consider `C=CCNC(=O)CN1CCN(C(c2ccccc2)c2ccccc2)CC1`, for which, in [8], the IC50 is 168 µM (active).

For `CCOc1cc(C=NNC(=O)c2cccc(S(=O)(=O)N3CCCC3)c2)ccc1O`, in assay [8], the IC50 was 32.3 µM (active).

On to `O=C(c1cn(-c2ccc(Cl)c(Cl)c2)nn1)C1CC1`, for which the EC50 in [1] is 10.6 µM (active); in [2], 7.57 µM (active); in assay [3], > 60 µM (not active).

For `CCN1C(=O)C(=C2C=C(C)OC(C)=C2)C(=O)N(CC)C1=S`, the EC50 in assay [1], in assay [2] and in [3] was > 120 µM (not active) in each case.

As to `COc1cc(OC)cc(C(=O)Nc2ccc(S(=O)(=O)Nc3cnc4ccccc4n3)cc2)c1`, in assay [4], the EC50 was > 53 µM (inactive). For the same compound, in assay [5], the IC50 is > 47.1 µM (inactive).

In the case of `O=[N+]([O-])c1cccc(/C=N/NC2=NCCCCC2)c1`, the EC50 in [4] was > 53 µM (inactive). In addition, the IC50 in assay [5] is > 47.1 µM (inactive).

With `COc1cc(/C=C/c2nnc3c4ccccc4ncn23)cc(OC)c1OC`, the EC50 in [1] is 29.1 µM (active); in [2] it was 8.84 µM (active); in assay [3], > 120 µM (not active). Also, in assay [9], the IC50 was > 79 µM (inactive).

As to `CCSc1nc2ccccc2n1CC(=O)N1CCCCC1`, in [4], the EC50 was > 53 µM (inactive). Also, the IC50 in assay [5] is > 47.1 µM (inactive).
